From patent publication US20250011265A1, “COMPOSITIONS AND METHODS FOR PRODUCTION OF ANTIMICROBIAL AGENTS FROM BIO-RENEWABLE FEEDSTOCKS” (SOLUGEN, INC., priority 2022, published 2025) come the findings set out here.

For assay [1], the system named is General Wild Strain Bacteria (Pseudomonas aeruginosa and Enterobacter aggolomerans). Briefly: Microtiter MIC study, general aerobic bacteria. It is filed as cell-based. On the procedure:
(§1) All three different heat incubated GDA samples were tested as antimicrobial agents with several different industrially relevant bacteria. The General Aerobic Bacteria isolated and used for this testing were identified as Pseudomonas aeruginosa and Enterobacter aggolomerans. Wild strain Sulfate Reducing Bacteria and Acid Producing Bacteria isolated from the produced fluids was also used. They were placed in a microtiter plate, where a high throughput test can be performed to determine MIC (minimum inhibitor concentration). Samples were tested at the following doses (1000, 500, 250, 125, 62.5, 31.2, 15.6, 7.8, 3.9, and 1.95 ppm) and concentration was calculated based on the initial GDA concentration (15 w/v %).
(§2) The antimicrobial testing results shown in FIG. 13 summarizes the MIC of each sample for different bacteria. The MIC is determined after 24 hours of incubation for the bacterial plates.

In assay [2] the test system is APB (Acid Producing Bacteria). In words: Microtiter MIC study, acid producing bacteria. It is filed as cell-based. The note with it: 24 hours incubation; concentration based on initial GDA concentration (15 w/v %). On the procedure:
as §1, §2

In assay [3] the test system is SRB (Sulfate Reducing Bacteria). Briefly: Microtiter MIC study, sulfate reducing bacteria. Type of assay: cell-based, Wild strain Sulfate Reducing Bacteria. The settings on record: 24 hours incubation; concentration based on initial GDA concentration (15 w/v %). As for the experimental part: as §1, §2

SMILES strings stand for the structures. ≈ marks a conversion by molar mass, not a printed value.

With `Oc1ccc(O)c(O)c1O` (single isomer, unassigned) [1,2,3,4-tetrahydroxybenzene], the antimicrobial activity result in assay [1] (inferred from Sample C result, all three bacteria tested) is reported as “good antimicrobial activity”.
Consider `O=CCCCC=O` [Glutaraldehyde - 50%, Glutaraldehyde], for which the MIC in assay [2] was determined as 500 µg/mL (≈ 4.99 mM); in assay [1] (Pseudomonas aeruginosa, 24 hours incubation, concentration based on initial GDA concentration (15 w/v %)) it was 1000 µg/mL (≈ 9.99 mM). Also, the “MIC, SRB (Sulfate Reducing Bacteria)” value in assay [3] stood at 500 ppm.

One may read the MIC as the smallest concentration in the dilution series that meets the test's criterion for growth inhibition. A low value points to greater potency.
